Key:
[1] = molecular target: T1, human PRMT1 (Homo sapiens, UniProt Q99873); assay: PRMT1 Biochemical Assay (3H-SAM Flashplate, peptide substrate); conditions: single experiment or average of multiple experiments
T1 construct: GST-tagged PRMT1; made in house; host or cells: High Five insect cells (baculovirus)
Outline: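 GST-tagged PRMT1 from baculovirus-infected cells, preincubated with compounds 30 min at room temperature in 20 mM Bicine pH 7.6, 1 mM TCEP, 0.005% BSG, 0.002% Tween 20. Reaction started with ³H-SAM plus biotinylated peptide, stopped with 300 µM cold SAM.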

[2] = molecular target: T2, human PRMT6 (Homo sapiens, UniProt Q96LA8); assay: PRMT6 Biochemical Assay (3H-SAM Flashplate, peptide substrate); conditions: Biochemical IC50 PRMT6, single experiment or average of multiple experiments
T2 construct: Flag-PRMT6-His; made in house; host or cells: HEK 293F cells (BacMam baculovirus)
T2 sequence (Q96LA8 with tags, fused parts or gaps): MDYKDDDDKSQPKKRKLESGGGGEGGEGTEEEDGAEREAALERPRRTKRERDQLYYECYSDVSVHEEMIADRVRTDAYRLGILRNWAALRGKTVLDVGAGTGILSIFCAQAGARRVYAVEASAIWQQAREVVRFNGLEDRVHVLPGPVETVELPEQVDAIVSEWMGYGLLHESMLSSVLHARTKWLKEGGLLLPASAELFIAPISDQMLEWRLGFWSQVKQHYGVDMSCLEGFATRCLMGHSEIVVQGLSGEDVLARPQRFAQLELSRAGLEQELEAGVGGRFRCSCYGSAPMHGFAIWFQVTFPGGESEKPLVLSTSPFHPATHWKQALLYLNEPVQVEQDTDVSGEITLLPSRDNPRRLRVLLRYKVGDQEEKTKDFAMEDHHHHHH
Outline: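 Methylation of a biotin-tagged H4 (36-50) peptide by ³H-SAM was quantified by streptavidin Flashplate capture and scintillation counts (dpm/cpm). Before SAM/peptide addition, Flag-PRMT6-His was preincubated with compound for 30 min at room temperature in Bicine buffer, pH 7.6.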

T1 sequence (Q99873 with tags, fused parts or gaps): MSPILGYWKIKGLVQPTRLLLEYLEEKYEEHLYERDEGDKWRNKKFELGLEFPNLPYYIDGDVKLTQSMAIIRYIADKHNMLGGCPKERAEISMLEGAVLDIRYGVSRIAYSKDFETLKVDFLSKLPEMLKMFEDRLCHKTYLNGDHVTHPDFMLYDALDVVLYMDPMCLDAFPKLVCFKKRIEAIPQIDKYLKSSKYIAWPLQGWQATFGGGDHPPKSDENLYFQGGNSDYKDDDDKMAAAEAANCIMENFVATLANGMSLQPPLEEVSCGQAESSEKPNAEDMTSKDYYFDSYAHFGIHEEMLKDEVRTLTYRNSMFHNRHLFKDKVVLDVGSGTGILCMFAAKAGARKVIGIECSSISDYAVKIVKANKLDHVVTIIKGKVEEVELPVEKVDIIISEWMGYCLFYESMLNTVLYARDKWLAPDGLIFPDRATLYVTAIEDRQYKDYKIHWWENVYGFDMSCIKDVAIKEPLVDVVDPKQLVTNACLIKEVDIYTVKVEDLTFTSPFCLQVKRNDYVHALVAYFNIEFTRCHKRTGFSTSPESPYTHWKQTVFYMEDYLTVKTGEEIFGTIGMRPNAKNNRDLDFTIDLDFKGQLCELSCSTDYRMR

Compound | IC50 [1] | IC50 [2]
CNCCN(C)Cc1c[nH]nc1-c1ccc(Oc2ccccc2)c(C#N)c1 [Compound 221] | 6.47 nM | 6.72 nM
CN(CCN)Cc1c(-c2ccc(C#N)cc2)ncn1C [Compound 222] | 1260 nM | 1160 nM
CN(CCN)Cc1c[nH]nc1-c1ccc(Oc2ccccc2)c(F)c1 [Compound 224, N^1-((3-(3-fluoro-4-phenoxyphenyl)-1H-pyrazol-4-yl)methyl)-N^1-methylethane-1,2-diamine] | 2.51 nM | 1.98 nM
CN(CCN)Cc1c[nH]nc1-c1ccc(Oc2ccc(F)cc2)cc1 [Compound 225, N^1-((3-(4-(4-fluorophenoxy)phenyl)-1H-pyrazol-4-yl)methyl)-N^1-methylethane-1,2-diamine] | 3.19 nM | 1.33 nM
CN(CCN)Cc1c[nH]nc1-c1ccc(Oc2ccccc2)c(C(=O)N(C)C)c1 [Compound 226] | 26.8 nM | 13.8 nM
CNC(=O)c1cc(-c2n[nH]cc2CN(C)CCN)ccc1Oc1ccccc1 [Compound 227] | 24.3 nM | 11.5 nM
CNCCN(C)Cc1c[nH]nc1-c1ccc(OCCCOC)c(Cl)c1 [Compound 228] | 5.55 nM | 8.22 nM

Reference: patent US9776972B2, “Pyrazole derivatives as arginine methyltransferase inhibitors and uses thereof” (priority 2013, dated 2017)
